Consider two molecules from patent US20210322369A1, “COMPOSITION FOR IMPROVING INTESTINAL ENVIRONMENT AND METHOD FOR IMPROVING INTESTINAL FLORA” (SUNTORY HOLDINGS LIMITED, priority 2018, published 2021).

Molecules are shown by their SMILES.

In data set [1] the test system is gut flora (Akkermansia bacteria, Firmicutes bacteria, Bacteroidetes bacteria). Nature of the data set: Gut flora improving action in high fat diet mouse model, 16S rRNA gene analysis of feces after eight weeks of intake. The class given is in vivo, Mice (C57BL/6J). As to conditions: high fat diet mice; for abundance ratio of Firmicutes bacteria to Bacteroidetes bacteria: eight weeks, High fat diet group 7.4, Regular diet group 4.2; for abundance ratio of Firmicutes bacteria to Bacteroidetes bacteria / abundance proportion of Akkermansia bacteria in the gut flora: feces; for change in the abundance ratio of Firmicutes bacteria to Bacteroidetes bacteria, in words: oral intake for eight weeks; for change in the abundance ratio of Firmicutes bacteria to Bacteroidetes bacteria, in words / abundance proportion of Akkermansia bacteria in the gut flora: compared to High fat diet group; for abundance proportion of Akkermansia bacteria in the gut flora: oral intake once a day for eight weeks. The text has this:
The influence of xanthohumol and isoxanthohumol on the gut flora was examined by the following procedure using a high fat diet mouse model. […] The dosage is an intake (mg) of the test substance per kg body weight per day. In the table, “Regular diet” is control diet “[…]” (Research Diets), and “60 kcal % High-fat diet” is very high-fat diet “D12492” (Research Diets); “Catechins” is a preparation “Polyphenon […]” (product name, Mitsui Morin Co., Ltd.). Catechins were used as a positive control. Xanthohumol and isoxanthohumol were the standard samples (purity of 95% or higher) obtained in Preparation Example 1. [table] Mice (C57BL/6J, male, 7 weeks of age, CLEA Japan, Inc.) were purchased, and they were quarantined and acclimatized for one week. […] The selected animals were divided into groups (n=8 in each group) in the group structure shown in Table 1 by the stratified continuous randomization method based on body weight at the end of the acclimatization period. They were fed with free access to specific basic feed and water. The test substance was orally fed once a day for eight weeks. A dosing solution containing a mixture of the test substance and a solvent was used to administer the test substance. The solvent was a 0.5 wt % sodium carboxymethylcellulose (CMC) aqueous solution. The volume of the dosing solution to be administered to each mouse was 10 mL/kg. The amount of the test substance and the volume of the solution were calculated based on the latest body weight. 16S rRNA gene analysis was performed on feces (fresh feces) collected eight weeks after the start of intake of the test substance. 16S rRNA gene analysis was performed by the method described in Examples of JP 2018-8911 A. The abundance proportions (abundance ratio) of intestinal bacteria found in the feces were determined by the gene analysis as the abundance ratio of bacteria in the gut flora. FIG. 1 is a graph showing the abundance proportion (group average) of bacteria in the gut flora of each group. The abundance proportion shown in FIG. 1 is the ratio (occupancy) of each species of bacteria to the total bacterial count in the feces. Verrucomicrobia in FIG. 1 is a higher rank to which Akkermansia bacteria belong. All the Verrucomicrobia bacteria in this analysis were Akkermansia bacteria. The dosage (mg/kg) of isoxanthohumol (IXN) and xanthohumol (XN) in FIG. 1 is the intake (mg) of the test substance per kg body weight per day. […] The abundance ratio of Firmicutes bacteria to Bacteroidetes bacteria was as follows: 4.2 in Regular diet group; 7.4 in High fat diet group; 1.7 in Catechins group; 3.2 in Xanthohumol (60 mg/kg) group; 6.0 in Isoxanthohumol (60 mg/kg) group (Group No. 5); and 2.4 in Isoxanthohumol (180 mg/kg) group (Group No. 6).

Data set [2] has as its system gut flora (Akkermansia bacteria). Nature of the data set: Example 2: 16S rRNA gene analysis of cecal contents two weeks after the start of intake. Format: in vivo. The following applies: 60 mg/kg body weight per day, compared to High fat diet group. On the procedure:
16S rRNA gene analysis was performed on feces (fresh feces) collected eight weeks after the start of intake of the test substance. 16S rRNA gene analysis was performed by the method described in Examples of JP 2018-8911 A. The abundance proportions (abundance ratio) of intestinal bacteria found in the feces were determined by the gene analysis as the abundance ratio of bacteria in the gut flora.
Another test was performed using isoxanthohumol as the test substance, with partial modification in the group structure and dosage design. In this test, the cecal contents were collected two weeks after the start of intake of the test substance, and 16S rRNA gene analysis was performed in the same manner as described above.

The conditions of data set [3]: 100° C.; cited from earlier work.

In the case of `COc1cc(O)c(CC=C(C)C)c2c1C(=O)CC(c1ccc(O)cc1)O2` (stereo not drawn) [Isoxanthohumol], in data set [1] (60 mg/kg/day oral), the “abundance ratio of Firmicutes bacteria to Bacteroidetes bacteria” value stood at 6.0. For the same molecule, the “abundance ratio of Firmicutes bacteria to Bacteroidetes bacteria” value in data set [1] (180 mg/kg/day oral) turned out to be 2.4. For the same molecule, in data set [1], the “change in the abundance ratio of Firmicutes bacteria to Bacteroidetes bacteria, in words” value is “decrease” and the “abundance proportion of Akkermansia bacteria in the gut flora” value was “increase”. Further, in data set [2], the “abundance ratio of Akkermansia bacteria in the gut flora” value is listed as “increase”. In data set [3], the “stability at high temperature” value is given as “stable”.
For the molecule `COc1cc(O)c(CC=C(C)C)c(O)c1C(=O)/C=C/c1ccc(O)cc1` [Xanthohumol], in data set [1] (60 mg/kg/day oral), the “abundance ratio of Firmicutes bacteria to Bacteroidetes bacteria” value was determined as 3.2. Further, in data set [1], the “change in the abundance ratio of Firmicutes bacteria to Bacteroidetes bacteria, in words” value was “decrease” and the “abundance proportion of Akkermansia bacteria in the gut flora” value was “increase”.
